US9102642B2, “Herbicidally active cyclic diones and derivatives thereof, processes for their preparation, compositions, and methods of controlling weeds” (Syngenta Limited, priority 2009, dated 2015)

Key:
Assay in all cases: Pre-emergence herbicidal activity, glasshouse pot test
Format in all cases: in vivo
Details in all cases: 312 h, Rate 250 g/ha, evaluated after 13 days, 100=total damage to plant, 0=no damage to plant
[1] = system: Alopecurus myosuroides (ALOMY)
Method: (§1) Seeds of a variety of test species were sown in standard soil in pots. After cultivation for one day (pre-emergence) or after 8 days cultivation (post-emergence) under controlled conditions in a glasshouse (at 24/16° C., day/night; 14 hours light; 65% humidity), the plants were sprayed with an aqueous spray solution derived from the formulation of the technical active ingredient in acetone/water (50:50) solution containing 0.5% Tween 20 (polyoxyethelyene sorbitan monolaurate, CAS RN 9005-64-5). The test plants were then grown in a glasshouse under controlled conditions in a glasshouse (at 24/16° C., day/night; 14 hours light; 65% humidity) and watered twice daily. After 13 days for pre and post-emergence, the test was evaluated (100=total damage to plant; 0=no damage to plant). Test Plants: Lolium perenne (LOLPE), Alopecurus myosuroides (ALOMY), Echinochloa crus-galli (ECHCG), and Avena fatua (AVEFA). Pre-Emergence Activity

[2] = system: Echinochloa crus-galli (ECHCG)
Method: as §1

Lolium perenne (LOLPE) = system: Lolium perenne (LOLPE)
Method: as §1

Avena fatua (AVEFA) = system: Avena fatua (AVEFA)
Method: as §1

SMILES | pest or weed control at 250 g/ha [1] [%] | pest or weed control at 250 g/ha [2] [%] | pest or weed control at 250 g/ha (Lolium perenne (LOLPE)) [%] | pest or weed control at 250 g/ha (Avena fatua (AVEFA)) [%]
CCc1cc(Oc2cnc3cc(Cl)ccc3n2)ccc1C1=C(O)C(C)(C)OC(C)(C)C1=O [Compound A-10, 4-[4-(6-chloroquinoxalin-2-yloxy)-2-ethylphenyl]-2,2,6,6-tetramethylpyran-3,5-dione] | 70 | 100 | 100 | 90
CCc1cc(Oc2ccc(Cl)cc2Cl)ccc1C1=C(O)C(C)(C)OC(C)(C)C1=O [Compound A-2] | 20 | 50 | 70 | 0
CCc1cc(Oc2ncc(C(F)(F)F)cc2Cl)ccc1C1=C(O)C(C)(C)OC(C)(C)C1=O [Compound A-11] | 90 | 100 | 100 | 90
Cc1cc(Oc2ncccc2Cl)cc(C)c1C1=C(O)CCCC1=O [Compound A-16] | 0 | 0 | 0 | 0
CCc1cc(Oc2ncc(Cl)cc2F)ccc1C1=C(O)C(C)(C)OC(C)(C)C1=O [Compound A-8] | 40 | 100 | 100 | 30
CCc1cc(Oc2ccc(F)cc2)ccc1C1=C(O)C(C)(C)OC(C)(C)C1=O [Compound A-6] | 60 | 100 | 100 | 30
CCc1cc(Oc2ccc(Cl)cc2)ccc1C1=C(O)C(C)(C)OC(C)(C)C1=O [Compound A-4] | 20 | 60 | 60 | 20
CCc1cc(Oc2ccc(Cl)cc2F)ccc1C1=C(O)C(C)(C)OC(C)(C)C1=O [Compound A-3] | 20 | 20 | 20 | 10
CCc1cc(Oc2ccc(Br)cc2)ccc1C1=C(O)C(C)(C)OC(C)(C)C1=O [Compound A-5] | 10 | 40 | 30 | 10
CCc1cc(Oc2ccc(Cl)c(F)c2)ccc1C1=C(O)C(C)(C)OC(C)(C)C1=O [Compound A-7, 4-[4-(4-chloro-3-fluorophenoxy)-2-ethylphenyl]-2,2,6,6-tetramethylpyran-3,5-dione] | 40 | 60 | 80 | 20
CCc1cc(Oc2ccc(C(F)(F)F)cn2)ccc1C1=C(O)C(C)(C)OC(C)(C)C1=O [Compound A-9, 4-[4-(5-trifluoromethylpyridin-2-yloxy)-2-ethylphenyl]-2,2,6,6-tetramethylpyran-3,5-dione] | 20 | 30 | 60 | 0
Cc1cc(Oc2cnc3cc(Cl)ccc3n2)cc(C)c1C1=C(O)C(C)(C)OC(C)(C)C1=O [Compound A-14] | 30 | 20 | 50 | 10
